Reference: paper PMC5486949 (SLAS discovery, 2017)
Structures can show the parent of a compound that is named as a salt. Where two headings read alike, the source gives them in different places.

Legend:
[1] = biological target: ERRα; assay: ERR luciferase reporter gene assay, agonist mode; type: cell-based, human; conditions: for AC50 ERR ↑: agonist mode, 0 = inactive or inconclusive; for AC50: read-out: AC50 ERR ↑
[2] = biological target: PGC-1α/ERRα; assay: PGC/ERR luciferase reporter gene assay, agonist mode; type: cell-based, human; conditions: for AC50 PGC-ERR ↑: agonist mode, 0 = inactive or inconclusive; for EC50 / AC50: Homo sapiens; for EC50: read-out: PGC-1α/ERRα (Agonist) EC50; for AC50: read-out: AC50 PGC-ERR ↑
[3] = test system: aryl hydrocarbon receptor (AhR); conditions: cited from earlier work
[4] = test system: PGC-1α/ERRα; assay: PGC/ERR luciferase reporter gene assay, antagonist mode; type: cell-based, human; conditions: for IC50: read-out: PGC-1α/ERRα (Antagonist) IC50; for AC50: read-out: AC50 PGC/ERR ↓
[5] = test system: ERRα; assay: ERR luciferase reporter gene assay, antagonist mode; type: cell-based, human; conditions: for IC50: read-out: ERRα (Antagonist) IC50; for AC50: read-out: AC50 ERR↓
[6] = test system: ERR cell line (HEK293T); assay: Cell viability assay multiplexed with ERR antagonist mode assay; type: cell-based, human; conditions: read-out: ERRα (Viability) IC50
[7] = test system: PGC/ERR cell line (HEK293T); assay: Cell viability assay multiplexed with PGC/ERR antagonist mode assay; type: cell-based, human; conditions: read-out: PGC-1α/ERRα (Viability) IC50
[8] = test system: ERR and PGC/ERR cell lines; assay: Cell viability; conditions: agonist mode, ERR and PGC/ERR lines (Fig. 3A,B)
[9] = read-out: ERRα (Agonist) EC50, LOPAC qHTS, dash = inconclusive or no activity
[10] = Homo sapiens, read-out: ERRα (Agonist) EC50
[11] = antagonist mode, 0 = inactive or inconclusive

6-Bromoindirubin-3-oxime
AC50 ERR ↑ [1]: 5.78 log10(M)*–1 | EC50 [1, 9]: 1.68 µM | AC50 PGC-ERR ↑ [2]: 5.93 log10(M)*–1 | AC50 AhR ↑ [3]: 5.48 log10(M)*–1

Nc1nc(Nc2ccccc2)nc2c1ncn2[C@@H]1O[C@H](CO)[C@@H](O)[C@H]1O [2-Phenylaminoadenosine]
EC50 [2]: 1.68 µM

Fc1cccc(C=NN=Cc2cccc(F)c2)c1 [3,3 ′-Difluorobenzaldazine]
EC50 [1, 9]: 13.3 µM

Nc1nccc2c1ncn2[C@@H]1O[C@H](CO)[C@@H](O)[C@H]1O [3-Deazaadenosine]
IC50 ([4]; Homo sapiens): 16.8 µM

Brc1c(Br)c(Br)c2[nH]cnc2c1Br [4,5,6,7-Tetrabromobenz-imidazole]
IC50 ([5]; Homo sapiens): 16.8 µM

Brc1c(Br)c(Br)c2[nH]nnc2c1Br [4,5,6,7-Tetrabromobenzo-triazole]
AC50 ([5]; Homo sapiens): 20.9 µM | IC50 ([5]; Homo sapiens): 18.8 µM | AC50 ([4]; Homo sapiens): 20.9 µM | IC50 ([4]; Homo sapiens): 21.1 µM

Nc1ccc(N=Nc2ccccc2)cc1 [4-Aminoazobenzene]
EC50 [1, 10]: 10.9 µM

Cc1cccc(C#Cc2ccccc2)n1 [6-Methyl-2-(phenylethynyl)pyridine HCl]
EC50 [1, 10]: 13.3 µM

CC1=C(C)C(=O)C(CCCCC#CCCCC#CCO)=C(C)C1=O [AA-861]
IC50 ([5]; Homo sapiens): 12.6 µM

CC[n+]1c(/C=C/C=C2/N(C)c3ccccc3C2(C)C)sc2ccccc21 [AC-93253 iodide]
IC50 [4]: 0.42 µM | IC50 [6]: 8.41 µM | IC50 [7]: 3.76 µM

O=C1NC(=O)/C(=C/c2ccc3c(c2)OC(F)(F)O3)S1 [AS 604850]
EC50 [1, 9]: 3.16 µM

CCCCC[C@H](CC(=O)NO)C(=O)N[C@H](C(=O)N1CCC[C@H]1CO)C(C)C [Actinonin]
IC50 ([4]; Homo sapiens): 8.91 µM

Nc1nc(N)c2nc(CNc3ccc(C(=O)N[C@@H](CCC(=O)O)C(=O)O)cc3)cnc2n1 [Aminopterin]
AC50 ([5]; Homo sapiens): 0.0468 µM | IC50 ([5]; Homo sapiens): 0.05 µM | AC50 ([4]; Homo sapiens): 0.0589 µM | IC50 ([4]; Homo sapiens): 0.06 µM

COc1cc(NS(C)(=O)=O)ccc1Nc1c2ccccc2nc2ccccc12 [Amsacrine hydrochloride]
IC50 ([6]; Homo sapiens, HEK-293T): 23.7 µM

O=c1cc(-c2ccc(O)cc2)oc2cc(O)cc(O)c12 [Apigenin]
AC50 [2]: 2.34 µM | AC50 AhR ↑ [3]: 5.28 log10(M)*–1

CO[C@H]1O[C@@H]2O[C@@]3(C)CC[C@H]4[C@H](C)CC[C@@H]([C@H]1C)[C@@]24OO3 [Artemether]
AC50 ([5]; Homo sapiens): 0.525 µM | IC50 ([5]; Homo sapiens): 0.53 µM | AC50 ([4]; Homo sapiens): 1.05 µM | IC50 ([4]; Homo sapiens): 0.75 µM

COc1ccc(-c2cc3nccn3c(Nc3ncccc3C(N)=O)n2)cc1OC.Cl.O [BAY 61-3606 hydrochloride hydrate]
AC50 ERR↓ [5, 11]: 5.53 log10(M)*–1 | AC50 PGC/ERR ↓ [4, 11]: 5.63 log10(M)*–1

Nc1ccc(-c2ccc3ccccc3n2)cc1 [BF-170 hydrochloride]
AC50 ERR ↑ [1]: 5.58 log10(M)*–1 | EC50 [1, 9]: 2.66 µM | AC50 PGC-ERR ↑ [2]: 5.78 log10(M)*–1

Cc1ccc(S(=O)(=O)/C=C/C#N)cc1 [Bay 11-7082]
EC50 [1, 9]: 16.8 µM

C[C@H]1CCC/C=C/[C@@H]2C[C@H](O)C[C@H]2[C@H](O)/C=C/C(=O)O1 [Brefeldin A]
IC50 ([5]; Homo sapiens): 1.5 µM

O=C(/C=C/c1ccc(O)c(O)c1)OCCc1ccccc1 [Caffeic acid phenethyl ester]
EC50 [2]: 11.9 µM

O=c1c(-c2ccc(O)cc2)coc2cc(O)ccc12 [Daidzein]
AC50 ([1]; Homo sapiens): 13.2 µM | EC50 [1, 10]: 13.3 µM | AC50 [2]: 20.9 µM

C#C[C@]1(O)CC[C@H]2[C@@H]3CCC4=Cc5oncc5C[C@]4(C)[C@H]3CC[C@@]21C [Danazol]
IC50 ([5]; Homo sapiens): 15 µM

OCCN(CCO)c1nc(N2CCCCC2)c2nc(N(CCO)CCO)nc(N3CCCCC3)c2n1 [Dipyridamole]
IC50 ([5]; Homo sapiens): 11.9 µM

O=c1cc(-c2ccccc2)oc2ccccc12 [Flavone]
EC50 [1, 10]: 9.69 µM

C=C[C@@]1(C)CC(=O)[C@]2(O)[C@@]3(C)[C@@H](O)CCC(C)(C)[C@@H]3[C@H](O)[C@H](OC(C)=O)[C@@]2(C)O1 [Forskolin]
EC50 [2]: 1.33 µM

O=c1c(-c2ccc(O)cc2)coc2cc(O)cc(O)c12 [Genistein]
EC50 ([1]; Homo sapiens, 18 h, read-out: EC50, ERRα induction, assay optimization, 2000 cells/well, 18 h): 3.33 µM | EC50 ([1]; Homo sapiens, 18 h, read-out: EC50, ERRα induction, assay optimization, 3000 cells/well, 18 h): 3.23 µM | AC50 ([1]; Homo sapiens): 2.95 µM | AC50 [2]: 3.31 µM | cytotoxicity at concentrations of outfitted points of agonist curves [8]: cytotoxicity did not appear to be the direct cause for the outfitted points

NNc1nncc2ccccc12 [Hydralazine hydrochloride]
EC50 [1, 10]: 0.75 µM

COc1ccc(/C=C2\COc3ccc(C)cc3C2=O)cc1O [IMS2186]
EC50 [1, 9]: 1.06 µM

O=C1Nc2ccccc2/C1=C1/Nc2ccccc2/C1=N\O [Indirubin-3′-oxime]
EC50 [1, 9]: 2.66 µM

O=C1Cc2c([nH]c3ccc(Br)cc23)-c2ccccc2N1 [Kenpaullone]
AC50 ([1]; Homo sapiens): 2.95 µM | EC50 [1, 10]: 2.98 µM | AC50 [2]: 1.32 µM | EC50 [2]: 1.33 µM | cytotoxicity at concentrations of outfitted points of agonist curves [8]: cytotoxicity did not appear to be the direct cause for the outfitted points

CC[N+](CC)(CC)CCOc1ccc(/C=C/c2ccccc2)cc1 [MG 624]
AC50 ([5]; Homo sapiens): 10.5 µM | IC50 ([5]; Homo sapiens): 9.44 µM | AC50 ([4]; Homo sapiens): 11.7 µM | IC50 ([4]; Homo sapiens): 12.6 µM

CC[C@H](C)C(=O)O[C@H]1CCC=C2C=C[C@H](C)[C@H](CC[C@@H]3C[C@@H](O)CC(=O)O3)[C@H]21 [Mevastatin]
EC50 [1, 10]: 2.98 µM

CC#C[C@]1(O)CC[C@H]2[C@@H]3CCC4=CC(=O)CCC4=C3[C@@H](c3ccc(N(C)C)cc3)C[C@@]21C [Mifepristone]
IC50 ([5]; Homo sapiens): 23.7 µM

Nc1ccc(CCNc2ncnc3c2ncn3[C@@H]2O[C@H](CO)[C@@H](O)[C@H]2O)cc1 [N6-2-(4-Aminophenyl)ethyladenosine]
EC50 [2]: 11.9 µM

OC[C@H]1O[C@@H](n2cnc3c(NC4CCCC4)ncnc32)[C@H](O)[C@@H]1O [N6-Cyclopentyladenosine]
EC50 [2]: 2.98 µM

COC(=O)Nc1nc2ccc(C(=O)c3cccs3)cc2[nH]1 [Nocodazole]
EC50 [2]: 1.88 µM

COc1cccc(-c2cc(=O)c3ccccc3o2)c1N [PD 98,059]
EC50 [1, 9]: 2.11 µM

CCCCCCCCCCCCCC(=O)O[C@@H]1[C@@H](C)[C@@]2(O)[C@@H](C=C(CO)C[C@]3(O)C(=O)C(C)=C[C@@H]23)[C@@H]2C(C)(C)[C@]12OC(C)=O [Phorbol 12-myristate 13-acetate]
AC50 ([1]; Homo sapiens): 0.00832 µM | EC50 [1, 10]: 0.01 µM | AC50 [2]: 0.00661 µM | EC50 [2]: 0.01 µM | cytotoxicity at concentrations of outfitted points of agonist curves [8]: cytotoxicity was seen at the concentration accompanying the outfitted points

Oc1cc(O)cc(/C=C/c2ccc(O)c(O)c2)c1 [Piceatannol]
AC50 ([1]; Homo sapiens): 8.32 µM | EC50 [1, 10]: 8.41 µM | AC50 [2]: 18.6 µM | EC50 [2]: 18.8 µM

CC(=O)[C@H]1CC[C@H]2[C@@H]3CCC4=CC(=O)CC[C@]4(C)[C@H]3CC[C@]12C [Progesterone]
IC50 ([5]; Homo sapiens): 11.9 µM

Cc1cccc(-c2[nH]ncc2-c2ccc3ncccc3n2)n1 [RepSox]
AC50 ERR↓ [5]: 5.88 log10(M)*–1 | IC50 [5]: 1.33 µM | AC50 PGC/ERR ↓ [4]: 5.93 log10(M)*–1 | IC50 [4]: 1.19 µM

Oc1ccc(/C=C/c2cc(O)cc(O)c2)cc1 [Resveratrol]
AC50 ([1]; Homo sapiens): 3.31 µM | EC50 [1, 10]: 3.35 µM | AC50 [2]: 11.7 µM | EC50 [2]: 11.9 µM

Cc1nc2sccn2c(=O)c1CCN1CCC(=C(c2ccc(F)cc2)c2ccc(F)cc2)CC1 [Ritanserin]
IC50 ([5]; Homo sapiens): 16.8 µM

O=c1c2ccccc2nc2n1CCc1c-2[nH]c2ccccc12 [Rutaecarpine]
AC50 ([1]; Homo sapiens): 2.34 µM | EC50 [1, 10]: 2.37 µM | AC50 [2]: 13.2 µM | EC50 [2]: 13.3 µM | AC50 AhR ↑ [3]: 5.53 log10(M)*–1

Oc1ccc(-c2nc(-c3ccncc3)c(-c3ccc(F)cc3)[nH]2)cc1 [SB 202190]
IC50 ([5]; Homo sapiens): 10.6 µM

Cc1ccc(O)c(N=Nc2ccccc2)n1 [SIB 1757]
EC50 [1, 9]: 8.41 µM

Cc1cccc(/C=C/c2ccccc2)n1 [SIB 1893]
EC50 [1, 9]: 13.3 µM

COc1ccc(CCCOC(Cn2ccnc2)c2ccc(OC)cc2)cc1 (stereo not shown) [SKF 96365]
IC50 ([5]; Homo sapiens): 17.8 µM

C=CCNc1ncnc2ccc(Br)cc12 [SMER28]
AC50 ERR↓ [5, 11]: 5.03 log10(M)*–1 | AC50 PGC/ERR ↓ [4, 11]: 4.98 log10(M)*–1

CN(C)c1ccc(C=C2C(=O)Nc3ccccc32)cc1 [SU 4312]
EC50 [1, 9]: 3.35 µM

CN(C)S(=O)(=O)c1ccc2c(c1)/C(=C/c1cc3c([nH]1)CCCC3)C(=O)N2 [SU 6656]
EC50 [2]: 23.7 µM

CC(=O)S[C@@H]1CC2=CC(=O)CC[C@]2(C)[C@H]2CC[C@@]3(C)[C@@H](CC[C@@]34CCC(=O)O4)[C@H]12 [Spironolactone]
AC50 ([5]; Homo sapiens): 16.6 µM | IC50 ([5]; Homo sapiens): 18.8 µM | AC50 ([4]; Homo sapiens): 9.33 µM | IC50 ([4]; Homo sapiens): 9.44 µM

CCN1/C(=C/C(C)=O)Sc2ccc(OC)cc21 [TG003]
AC50 ERR↓ [5, 11]: 4.93 log10(M)*–1 | AC50 PGC/ERR ↓ [4, 11]: 5.23 log10(M)*–1

C/C=C(/C)C(=O)O[C@H]1C(C)=C2[C@H]([C@@H]1OC(=O)CCCCCCC)[C@@](C)(OC(C)=O)C[C@H](OC(=O)CCC)[C@@]1(O)[C@H]2OC(=O)[C@@]1(C)O [Thapsigargin]
IC50 ([5]; Homo sapiens): 0.24 µM | IC50 ([6]; Homo sapiens, HEK-293T): 10.6 µM

COc1ccc(/C=C/C(=O)Nc2ccccc2C(=O)O)cc1OC [Tranilast]
EC50 [1, 10]: 1.68 µM

COc1cc2c(cc1OC)-c1c/c(=N\c3c(C)cc(C)cc3C)n(C)c(=O)n1CC2 [Trequinsin hydrochloride]
IC50 ([5]; Homo sapiens): 16.8 µM

CC(C)(C)c1cc(/C=C(\C#N)C(N)=S)cc(C(C)(C)C)c1O [Tyrphostin AG 879]
IC50 ([5]; Homo sapiens): 2.37 µM
